# Reference: US20130142784A1 (The Board of Trustees of the University of Illinois, priority 2010, published 2013)
# Ends that are not written are not given here.
# Assays:
# [1] = test system: SKBR3 resistant cells; experiment: cell number after FoxM1 siRNA knockdown and HERCEPTIN; format: cell-based, human; settings: in conjunction with HERCEPTIN
# Experimental: The source of resistance in these lines was not uniform, as an increase in phosphorylated Akt was only observed in SKBR3 cells. FoxM1 levels in parental and resistant lines were assayed by western blot analysis. Extracts were prepared in lysis buffer containing 1 mM EDTA, 0.15M NaCl, 0.05M Tris-HCl pH 7.5, and 0.5% Triton-X. Phosphatate Inhibitor Cocktail Set II (Calbiochem) and protease inhibitor (Roche) were added before each experiment using the rabbit polyclonal antibody referenced above. Quantification was performed using Image J software (NIH).
# Additionally, levels of cell cycle regulators, Polo-like Kinase 1 (1.5-fold) and Cyclin B1 (16.6-fold) were amplified in the resistant line as compared to the parental control line (FIG. 3B). GAPDH is used as a loading control to ensure that the same amount of RNA was added to each reaction. All bands are normalized to GAPDH bands from the same sample and then normalized values from parental and resistant cells can be compared. […] The control (5′ […] 3′, SEQ ID NO:12) and FoxM1 targeting siRNA (5′ […] 3′, SEQ ID NO:9) were both from Dharmacon, and purified using standard desalting methods. Prior to transfection, plates are washed and cells are placed in serum-free media. siRNA was added to a final concentration of 7.5 pm to each plate using Lipofectamine 2000 (Invitrogen) transfection. […]
# [2] = test system: GATA-3 promoter; experiment: ChIP assay, DNMT3b binding; format: cell-based, human; settings: compared with control siRNA
# Experimental: (§1) The mouse GATA-3 promoter contains three FoxM1 consensus sequences within 2 kb of the transcriptional start site. Whether FoxM1 directly regulated GATA-3 at the RNA level was investigated using chromatin immunoprecipitation (ChIP) assay. Cells were fixed in 1% formaldehyde for 10 minutes to allow crosslinking and then quenched with […] glycine. For in vivo ChIP assays, single cell suspensions were generated using collagenase/hyaluronidase followed by fixing. Cells were collected and lysed in SDS lysis buffer (1% SDS, 10 mM EDTA, 50 mM Tris pH 8, protease and phosphatase inhibitors). Lysate was sonicated, pre-cleared, and incubated with antibodies against GFP (Clontech, JL-8), GATA-3 (Santa Cruz HG3-31), FoxM1 (Major et al., 2004, “Forkhead box M1B transcriptional activity requires binding of Cdk-cyclin complexes for phosphorylation-dependent recruitment of p300/CBP coactivators” Mol Cell Biol 24: 2649-61), DNMT3b (Imgenex 52A1018), or Rb (Cell Signaling, 4H1) followed by purification with Protein-A and Protein-G Sepharose beads in the presence of salmon sperm DNA (Upstate). Beads were washed and DNA extracted using a PCR purification kit (Qiagen). PCR products were visualized by gel electrophoresis or analyzed using SYBR Green (Bio-Rad), normalized to the IgG control (Santa Cruz Biotechnology).
# DNMT3b has been specifically implicated in mammary tumor biology. […]
# [3] = test system: GATA-3 promoter; experiment: ChIP assay, Rb binding; format: cell-based, human; settings: compared with control siRNA
# Experimental: as §1
# [4] = test system: MDA-MB-453 resistant cells; experiment: colony forming assay, ARF-derived peptide and trastuzumab; format: cell-based, human; settings: with trastuzumab; peptide 2 μM
# Experimental: (§2) FIGS. 6A and 6B are graphs showing quantitative colony forming assay of parental or resistant SKBR3 and MDA-MB-453 cells treated with either ARF-peptide or mutant peptide (2 μM). […] Also shown below the graphs are images of representative wells of cells from such colony-forming assays.
# (§3) The cells were maintained in HERCEPTIN thereafter. […] Quantification was done using Adobe Photoshop.
# (§4) Studies have shown that FoxM1 is inhibited by a small peptide that contains a 19-amino acid region of the p19ARF protein (residues 26 to 44) (SEQ ID NO:2). […] Treatment with the ARF-derived peptide and trastuzumab led to a 90% reduction in cell numbers in both SKBR3 and MDA-MB-453 resistant cells as measured by colony forming assays (following the same protocol as described above in Example 5) (FIG. 6A).
# [5] = test system: SKBR3 resistant cells; experiment: as above; format: cell-based, human; settings: with trastuzumab; peptide 2 μM
# Experimental: as §2, §3, §4
# [6] = test system: SKBR3-pBabe and FoxM1 cells; experiment: surviving cells after ARF-peptide added to HERCEPTIN, paclitaxel or combination; format: cell-based, human
# Experimental: as §2
# The ability of the ARF-peptide to sensitize FoxM1-expressing cells to treatment was also investigated.
# [7] = test system: hepatocellular carcinoma cells; settings: mouse; cited from earlier work
# [8] = test system: SKBR3 cells; experiment: cell viability, CellTiter-Glo Luminescent assay, paclitaxel; format: cell-based, human; settings: for IC50: Homo sapiens, TAXOL 24 hours; for cells survived: 0.1 μM, seven days
# Experimental: After seven days of treatment in a low dose of paclitaxel (TAXOL) (0.1 μM), only 25% of SKBR3-pBabe cells survived, while nearly 50% of SKBR3-FoxM1 cells survived (FIG. 4A).
# [9] = test system: polymerized and soluble tubulin fractions of SKBR3-pBabe and SKBR3-FoxM1 expressing lines; experiment: polymerized vs soluble tubulin fractionation and western blot; format: cell-based, human
# Experimental: In addition, the possibility that FoxM1 induced altered microtubule dynamics was investigated. Paclitaxel has been known to stabilize tubulin, and thus the ratio of polymerized to soluble microtubule fractions was compared. Cell lysates of SKBR3-pBabe and SKBR3-FoxM1 expressing lines untreated or treated with paclitaxel were fractionated to obtain polymerized and soluble tubulin fractions. […] Briefly, cells were seeded at 80% confluency in 24-well plates, collected in hypotonic buffer (1 mM MgCl2, 2 mM EGTA, 0.5% Nonidet P-40, 20 mM Tris-HCl pH 6.8) and centrifuged for 10 minutes at room temperature (14,000 rpm). The supernatant was used as the soluble fraction while the pellet was used as the polymerized fraction.
# [10] = test system: cells with HER2/ErbB2 amplification; settings: on average; cited from earlier work
# [11] = FoxM1-expressing cells, with HERCEPTIN and paclitaxel combination treatment
compound,measurement,setting,value
"5′ GGACCACUUUCCCUACUUUUU 3′ (listed as RNA, chemistry not given here) [FoxM1 targeting siRNA]",reduction in cell number,[1],more than 75%
same,DNMT3b binding to GATA-3 promoter at −747 and −1431,[2],significantly decreased
same,Rb binding to GATA-3 promoter,[3],could not bind to the GATA-3 promoter
"ARF-derived peptide: cell-penetrating peptide inhibitor of FoxM1 containing a 19-amino acid region of the p19ARF protein (residues 26 to 44) (KFVRSRRPRTASCALAFVN; not fully specified; UniProt Q64364 26-44, looked up, fragment)",reduction in cell numbers,[4],90%
same,reduction in cell numbers,[5],90%
same,cell killing,[6]; [11],more than 97%
same,cells surviving,[6]; [11],less than 3%
same,cell number compared to mutant peptide,"[6]; added to HERCEPTIN, paclitaxel, or combination treatment, three days",dramatic reduction in cell number
same,cell killing at the same dosage compared to mutant peptide,"[6]; pBabe cells, all treatments",greater cell killing
same,proliferation and apoptosis of hepatocellular carcinoma cells in vivo,[7],reduce proliferation and induce apoptosis
CC(=O)O[C@H]1C(=O)[C@@]2(C)[C@H]([C@H](OC(=O)c3ccccc3)[C@]3(O)C[C@H](OC(=O)[C@H](O)[C@@H](NC(=O)c4ccccc4)c4ccccc4)C(C)=C1C3(C)C)[C@]1(OC(C)=O)CO[C@@H]1C[C@@H]2O [paclitaxel],IC50,"[8]; SK-BR-3, SKBR3 cells transfected with FoxM1-specific siRNA 72 hours",10 nM
same,IC50,"[8]; SK-BR-3, SKBR3 cells transfected with control siRNA 72 hours",60 nM
same,cells survived,[8]; SKBR3-FoxM1 cells,~50%
same,cells survived,[8]; SKBR3-pBabe cells,25%
same,ratio for β-tubulin,[9]; FoxM1-expressing cells after paclitaxel treatment,did not show a significant change
same,α- and β-tubulin distribution,[9]; SKBR3-pBabe cells after paclitaxel treatment,dramatic shift towards the polymerized fraction
same,higher dose required to produce the same effect,[10],100 fold
